Experiments:
[1] = Nomeir et al., Drug Metab Dispos 20(2):198-204, 1992; cited from earlier work
[2] = tested on: patients suffering from severe disabling atopic dermatitis (AD); assay: Test in vivo with atopic dermatitis subjects (SCORAD system); set-up: species or system human
Experimental: Experiments were carried out on patients (n=20) of both sexes, of age above 18 years, suffering from severe disabling atopic dermatitis (AD) unresponsive to the current topical treatments.
All patients were subjected to complete blood count and measurements of renal and hepatic functions prior to treatment. Patients who had been systemically treated two months previously with corticoids, antibiotics, psoralenes and other immunosuppressants or with UV were excluded. Patients were supposed not to use any corticoid topically.
Material—A commercially available formulation Triderm Lenil (ICIM International srl, Gallarate, Italy) was used as such (formulation I) or with the addition of 1×10^−2 mol (0.33 g) of Furfuryl palmitate (formulation II).
Triderm Lenil ingredients: aqua, petrolatum, paraffinnum liquidum, dimethicone, laureth-9, C12-C15 alkyl benzoate, soy sterol, phenyl trimethicone, cetearyl alcohol, ribes nigrum, bisabolol, tocopheryl acetate, dimethicone copolyol, capryloyl glycine, glycyrrhetinc acid, superoxide dismutase, phytosphingosine, polyquaternium-7, sodium carbomer, hydroxypropyl guar, disodium EDTA, farnesol, sodium chloride.
Treatment—Out of 20 patients, 10 were included in the furfuryl palmitate-treated group […] and 10 in the control group (formulation I). […] Patients were divided in two groups and treated twice a day for one months either with the Furfuryl palmitate-containing cream or with the placebo cream (control group). Evaluations—The progress of the disease was monitored with the SCORAD system (Dermatology 1993; 186: 23-31) drafted by European Task Force on Atopic Dermatitis (European Society of Pediatric Dermatology, Bordeaux, September 1990) with further modification by Hanifin and Rajka, thus by monitoring 3 criteria: • A) Lesione spread: analysis of surface involvement was performed during the clinical examination by drawing the involved areas on the evaluation sheet, then calculate the proportion of involved surface area segment by segment. For example, if ¾th of the right lower limb is interested by AD, the corresponding score is of about 7/9. • B) Grading of intensity: carried out in a chosen representative area in patients with localized lesions. In patients with areas varying in severity, a representative area of mean involvement is chosen. Dryness should be evaluated in a remote area of non-inflammatory skin. The elementary lesions were classified in the following manifestation: a) Erythema b) Edema/papulation c) Oozing/crusting d) Excoriation e) Lichenification, wherein each item is scored on a scale of 0 to 3, with the total for the intensity criteria is based on a maximum of 18 • C) Subjective signs: by looking at the two most representative items concerning the quality of life of patients during the 3 previous days, i.e. pruritus and insomnia. The patient and/or one of their relatives expresses the intensity of pruritus or insomnia using a visual analog scale graded between 0 and 10.
At the beginning of the treatment, the body area affected by eczema was 69% on the average in all patients. […] At the end of the treatment, the mean scores for itching decreased from 2.3 to 0.6 and for sleep disorders from 7.9 to 1.0. only in the furfuryl palmitate-treated patients.

[3] = at the end of the treatment, 10 patients in the treated group

Row | melting point [°C] | Compound | toxicity compared with furfuryl alcohol [1] | mean of the values concerning the different clinical symptoms (SCORAD) ([2]; after the first two weeks of treatment, cream with furfuryl palmitate (formulation II) twice a day, decreased from 57.0 (SEM 1.6 n=10) at start) | mean score for itching ([2]; at the end of the treatment (one month, twice a day), decreased from 2.3) | mean score for sleep disorders ([2]; at the end of the treatment (one month, twice a day), decreased from 7.9) | number of treated patients with significant improvements of all the considered parameters [2, 3] | treated patients with improvement limited to skin scaling [2, 3] | body area affected by eczema ([2]; reached during treatment, twice a day for one month, 69% on the average in all patients at the beginning) [%]
1 |  | O=Cc1ccco1 [furfural] | at least twice as toxic as the furfuryl alcohol |  |  |  |  |  | 
2 | 31 to 33 | CCCCCCCCCCCCCCCC(=O)OCc1ccco1 [furfuryl palmitate, Furfuryl Palmitate] |  | 21.5 | 0.6 | 1.0 | 8 | two of them only showed improvements concerning skin scaling | 27
